The record followed here is article PMC4405350, “From Broad-Spectrum Biocides to Quorum Sensing Disruptors and Mussel Repellents: Antifouling Profile of Alkyl Triphenylphosphonium Salts” (PLoS ONE, 2015).

Each structure is given as a SMILES string.

What is called IC50 is the concentration that gives 50% inhibition.

One series concerns Aspergillus sp. Kind of series: Marine-derived fungi growth inhibition (OD405). Format: cell-based. The following applies: Aspergillus, 120 h; growth inhibition, 5 days, 26 °C; read-out: IC50 Aspergillus sp. The method, boiled down:
(§1)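 Reef-derived fungal isolates grown on PDA with 50% v/v seawater at 26 °C; conidial inocula exposed to compounds for 5 days at 26 °C, triplicate.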

The subject of the next series is Alternaria sp. Kind of series: Marine-derived fungi growth inhibition (OD405). Type of series: cell-based. The following applies: Alternaria, 120 h; growth inhibition, 5 days, 26 °C; read-out: IC50 Alternaria sp. The method, boiled down:
as §1

Another series relates to C. violaceum CVO26. Description: C. violaceum CVO26 growth inhibition (OD625). Type of series: cell-based. The following applies: Chromobacterium violaceum, CVO26, 18 h, read-out: IC50 (Growth inhibition). As to the method:
The reporter strain C. violaceum CVO26 (CECT 5999) was used to screen the ability of the products to interfere with violacein production, a QS-regulated phenotype. C. violaceum CVO26 is a mini-Tn5 mutant that depends on an exogenous source of autoinducer (AI) (N-hexanoyl homoserine lactone, HHL) for violacein production. C. violaceum CVO26 was cultured in LB broth (Sigma-Aldrich) supplemented with 25 μg ml^-1 kanamycin. Inocula were prepared by dilution (1:100) of an overnight culture of the reporter strain [49]. One hundred microliters of inoculum with HHL (Sigma-Aldrich, 6 μM) or without the AI were added to 96-well plates containing 100 μl of the appropriate dilutions of the test products in LB. Thus, two sets of plates were prepared. One set of plates (without HHL) was used to evaluate the effect of the products on bacterial growth, whereas the other set of plates (with HHL) was used to evaluate their effect on violacein production. Both sets of plates were incubated at 30 °C with agitation (150 rpm) for 18 h.
Growth inhibition was quantified in the first batch of plates by re-suspending bacterial pellets and measuring the OD625. From the second batch of plates violacein was extracted and quantified. Briefly, the plates were dried overnight (60 °C) and violacein was re-solubilized by the addition of 200 μl of DMSO. The plates were shaken for 3 h and then the OD590 was determined.
Indeed, the inhibitions observed in violacein production for long alkyl chains (10–18, 20) were clearly correlated to the biocidal effect exerted by these compounds, with ‘therapeutic ratios’ (IC50 for growth inhibition/IC50 for violacein inhibition) around 1, in general (Table 2). Note that, as the length of the hydrocarbon chain becomes shorter, this ratio increased (8–9). […] To evaluate these compounds in further detail, […] stock solutions were prepared […] to avoid the use of high concentrations of DMSO in the bioassays. […] Serial two-fold dilutions (500–3.9 μM) were assayed. Consequently, the highest amount of DMSO used in the assay was 0.25% (v/v). […] Growth inhibitory effects are only observed at 500 μM, particularly for compound 7 (Fig 6D).

The test system of series [1] is Vibrio anguillarum CECT 4347. Description: Marine bacteria growth inhibition (broth microdilution, OD625). Particulars: Vibrio anguillarum, CECT4347; growth inhibition, 24 h, 30 °C, three replicates; read-out: IC50 V. anguillarum. Type of series: cell-based. For orientation: In broth dilution the organism is exposed to a series of concentrations in liquid medium.
The test system of series [2] is Shewanella algae CECT 5021. The series is described as above. Type of series: cell-based. The following applies: Shewanella algae, CECT5021; growth inhibition, 24 h, 30 °C, three replicates; read-out: IC50 S. algae.
Series [3] relates to Cellulophaga lytica CECT 5014. The description is as above. Type of series: cell-based. Particulars: Cellulophaga lytica, CECT5014; growth inhibition, 24 h, 30 °C, three replicates; read-out: IC50 C. lytica.
A further series has as its system Cobetia marina CECT 4278. The series is described as above. Type of series: cell-based. Particulars: Cobetia marina, CECT4278; growth inhibition, 24 h, 30 °C, three replicates; read-out: IC50 C. marina.
Series [4] has as its system Pseudoalteromonas atlantica CECT 579. Described as above. Format: cell-based. The following applies: Pseudoalteromonas atlantica, CECT579; growth inhibition, 24 h, 30 °C, three replicates; read-out: IC50 P. atlantica.
Series [5] relates to Vibrio alginolyticus CECT 521. Described as above. Format: cell-based. Particulars: Vibrio alginolyticus, CECT521; growth inhibition, 24 h, 30 °C, three replicates; read-out: IC50 V. alginolyticus.
For another series, the system named is Artemia salina nauplii. Description: in vivo. Particulars: instar I nauplii, 24 h, 28 °C. As to the method:
All the biological assays were run by triplicate. […] For the active products, serial dilutions were performed to calculate the half-maximal inhibitory concentrations (IC50) or the minimal inhibitory concentrations (MIC). Unless otherwise stated, the test concentrations were 100, 50, 25, 10, 5, 2.5, 1, 0.5 and 0.1 μM. Dose-response curves were adjusted with GraphPad Prism 5 software using a four-parameter non-linear regression model.
Artemia salina cysts (INVE Aquaculture, Ghent, Belgium) were hatched in brackish water (30 ‰ salinity) at 28 °C with aeration and under constant light. Newly hatched instar I nauplii were harvested for bioassays. Tests were conducted in 96-well plates (15±5 nauplii per well, test volume = 200 μl). The number of dead and alive individuals was recorded after 24 h of incubation at 28 °C and 24-hour photoperiod.

Series [6] has as its system Gayralia oxysperma spores. Description: Macroalgal spore germination inhibition. Type of series: cell-based. The following applies: 6 days, 19±1 °C. The gist of the method: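 Gayralia oxysperma spores (ca. 2 x 10^5 spores ml^-1 inoculum) in Von Stosch Solution were incubated with phosphonium salts at 0.1–100 μM, 6 days at 19±1 °C, in triplicate. Germination (visible germ tube) scored microscopically; MIC as lowest fully inhibiting concentration, IC50 from four-parameter fit.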

Take `CCCCCCCCCCC[P+](c1ccccc1)(c1ccccc1)c1ccccc1` [Compound 11]: the IC50 came to 5.1 µM in the series with Aspergillus sp.; 3.5 µM in the series on Alternaria sp.; 4.9 µM in the series on C. violaceum CVO26; 17 µM in series [1]; 5.4 µM in series [2]; 1.1 µM in series [3]. The IC50 with Cobetia marina CECT 4278 is 6.1 µM; in series [4], 3 µM; in series [5] it was 32.9 µM. Also, in the series with Artemia salina nauplii, the “IC50 A. salina (LC50)” value came to 1.8 µM. In addition, the “MIC G. oxysperma (lowest concentration inhibiting spore germination)” value in series [6] is 50 µM.
